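Assay format: 96-well plates, 48-hour exposure. TGI is the concentration that stops growth completely.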
Tests used:
Assay in all cases: inhibition of tumour cell growth, NCI panel, 48 h
[1] = tested on: HOP-92 NSCLC
[2] = tested on: U251 CNS
[3] = tested on: SK-OV-3 ovarian
[4] = tested on: IGROV1 ovarian
[5] = tested on: HS 578T breast
[6] = tested on: ACHN renal
[7] = tested on: OVCAR-3 ovarian
[8] = tested on: M14 melanoma
[9] = tested on: NCI-H226 lung
[10] = tested on: SF-268 CNS
[11] = tested on: SW-620 colon
[12] = tested on: TK-10 renal
[13] = tested on: EKVX NSCLC
[14] = tested on: RXF 393 renal
[15] = tested on: HCT-116 colon
[16] = tested on: RPMI-8226 leukemia
[17] = tested on: DU-145 prostate
[18] = tested on: SK-MEL-28 melanoma
[19] = tested on: SF-295 CNS
[20] = tested on: SF-539 CNS
[21] = tested on: PC-3 prostate
[22] = tested on: HCT-15 colon
[23] = tested on: MDA-MB-231 breast
[24] = tested on: SN12C renal
[25] = tested on: HCC-2998 colon
[26] = tested on: HL-60(TB) leukemia
[27] = tested on: SK-MEL-2 melanoma
[28] = tested on: A498 renal
[29] = tested on: NCI-H23 lung
[30] = tested on: UACC-62 melanoma
[31] = tested on: OVCAR-4 ovarian
[32] = tested on: K-562 leukemia
[33] = tested on: SNB-19 CNS
[34] = tested on: MCF7 breast
[35] = tested on: NCI-H522 lung
[36] = tested on: NCI-H460 lung
[37] = tested on: 786-0 renal
[38] = tested on: HOP-62 NSCLC
[39] = tested on: OVCAR-5 ovarian
[40] = tested on: HT29 colon
[41] = tested on: LOX IMVI melanoma
[42] = tested on: A549 NSCLC
[43] = tested on: T-47D breast
[44] = tested on: KM12 colon
[45] = tested on: CAKI-1 renal
[46] = tested on: OVCAR-8 ovarian
[47] = tested on: UO-31 renal
[48] = tested on: CCRF-CEM leukemia
[49] = tested on: MOLT-4 leukemia
[50] = tested on: COLO 205 colon
[51] = tested on: SK-MEL-5 melanoma
[52] = tested on: SR leukemia
[53] = tested on: SNB-75 CNS
[54] = tested on: BT-549 breast
[55] = tested on: MDA-MB-435
[56] = tested on: UACC-257 melanoma
[57] = tested on: NCI/ADR-RES ovarian

Nc1ncnc2c1ncn2[C@@H]1O[C@H](COC(c2ccccc2)(c2ccccc2)c2ccccc2)[C@@H](OC(=S)Oc2ccccc2)[C@@H]1F
TGI [1]: 28.6 µM | TGI [2]: 21.8 µM | TGI [3]: 30.8 µM | TGI [4]: 10.8 µM | TGI [5]: 25.1 µM | TGI [6]: 22.6 µM | TGI [7]: 18.4 µM | TGI [8]: 21 µM | TGI [9]: 31.8 µM | TGI [10]: 12.4 µM | TGI [11]: 29.7 µM | TGI [12]: 32.3 µM | TGI [13]: 26.6 µM | TGI [14]: 12.3 µM | TGI [15]: 13.8 µM | TGI [16]: > 100 µM | TGI [17]: 30.2 µM | TGI [18]: 33.5 µM | TGI [19]: 31.1 µM | TGI [20]: 20.9 µM | TGI [21]: 15.2 µM | TGI [22]: 12.5 µM | TGI [23]: 23.7 µM | TGI [24]: 15.1 µM | TGI [25]: 28.5 µM | TGI [26]: 13.3 µM | TGI [27]: 19.4 µM | TGI [28]: 35.2 µM | TGI [29]: 16 µM | TGI [30]: 29.7 µM | TGI [31]: 57.9 µM | TGI [32]: > 100 µM | TGI [33]: 27.7 µM | TGI [34]: 14.9 µM | TGI [35]: 5.32 µM | TGI [36]: 46.3 µM | TGI [37]: 15.9 µM | TGI [38]: 46 µM | TGI [39]: 37 µM | TGI [40]: 22.7 µM | TGI [41]: 14.1 µM | TGI [42]: 43.7 µM | TGI [43]: 52.3 µM | TGI [44]: 29.1 µM | TGI [45]: 41.6 µM | TGI [46]: 11.9 µM | TGI [47]: 13.2 µM | TGI [48]: 8.55 µM | TGI [49]: 5.98 µM | TGI [50]: 24.8 µM | TGI [51]: 16.8 µM | TGI [52]: 8.24 µM | TGI [53]: 32.6 µM | TGI [54]: 19.9 µM | TGI [55]: 19.1 µM | TGI [56]: 28.6 µM | TGI [57]: 18.5 µM

— PubChem BioAssay (NCI)
